Experimental data from ChEMBL document CHEMBL4325935, “Molecular Basis for the Selective Inhibition of Histone Deacetylase 6 by a Mercaptoacetamide Inhibitor” (ACS Med Chem Lett, 2018).

Columns and labels:
[1] = molecular target: T1, Histone deacetylase 8 (Homo sapiens, UniProt Q9BY41); experiment: Inhibition of full length human N-terminal FLAG-tagged HDAC8 (1 to 377 residues) expressed in HEK293 cells preincubated for 15 mins followed by Boc-[trifluoroacetyl-Lys]-AMC substrate addition measured after 30 mins by fluorimetric method; assay type: cell-based
T1 sequence (Q9BY41 whole entry): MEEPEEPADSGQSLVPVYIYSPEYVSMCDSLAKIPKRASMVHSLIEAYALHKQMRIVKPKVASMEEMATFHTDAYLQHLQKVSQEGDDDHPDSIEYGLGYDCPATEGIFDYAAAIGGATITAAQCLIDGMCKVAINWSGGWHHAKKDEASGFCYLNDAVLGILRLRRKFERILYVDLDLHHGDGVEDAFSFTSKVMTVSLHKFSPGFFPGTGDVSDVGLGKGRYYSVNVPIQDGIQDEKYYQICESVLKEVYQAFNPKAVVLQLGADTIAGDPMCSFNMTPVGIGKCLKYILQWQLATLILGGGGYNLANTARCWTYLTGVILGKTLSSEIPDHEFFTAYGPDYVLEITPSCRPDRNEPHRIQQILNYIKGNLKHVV

[2] = molecular target: T2, Protein deacetylase HDAC6 (Homo sapiens, UniProt Q9UBN7); experiment: Inhibition of full length human N-terminal FLAG-tagged HDAC6 (1 to 1215 residues) expressed in HEK293 cells preincubated for 15 mins followed by acetyl-Gly-Ala-[acetyl-Lys]-AMC substrate addition measured after 30 mins by fluorimetric method; assay type: cell-based
T2 sequence (Q9UBN7 whole entry): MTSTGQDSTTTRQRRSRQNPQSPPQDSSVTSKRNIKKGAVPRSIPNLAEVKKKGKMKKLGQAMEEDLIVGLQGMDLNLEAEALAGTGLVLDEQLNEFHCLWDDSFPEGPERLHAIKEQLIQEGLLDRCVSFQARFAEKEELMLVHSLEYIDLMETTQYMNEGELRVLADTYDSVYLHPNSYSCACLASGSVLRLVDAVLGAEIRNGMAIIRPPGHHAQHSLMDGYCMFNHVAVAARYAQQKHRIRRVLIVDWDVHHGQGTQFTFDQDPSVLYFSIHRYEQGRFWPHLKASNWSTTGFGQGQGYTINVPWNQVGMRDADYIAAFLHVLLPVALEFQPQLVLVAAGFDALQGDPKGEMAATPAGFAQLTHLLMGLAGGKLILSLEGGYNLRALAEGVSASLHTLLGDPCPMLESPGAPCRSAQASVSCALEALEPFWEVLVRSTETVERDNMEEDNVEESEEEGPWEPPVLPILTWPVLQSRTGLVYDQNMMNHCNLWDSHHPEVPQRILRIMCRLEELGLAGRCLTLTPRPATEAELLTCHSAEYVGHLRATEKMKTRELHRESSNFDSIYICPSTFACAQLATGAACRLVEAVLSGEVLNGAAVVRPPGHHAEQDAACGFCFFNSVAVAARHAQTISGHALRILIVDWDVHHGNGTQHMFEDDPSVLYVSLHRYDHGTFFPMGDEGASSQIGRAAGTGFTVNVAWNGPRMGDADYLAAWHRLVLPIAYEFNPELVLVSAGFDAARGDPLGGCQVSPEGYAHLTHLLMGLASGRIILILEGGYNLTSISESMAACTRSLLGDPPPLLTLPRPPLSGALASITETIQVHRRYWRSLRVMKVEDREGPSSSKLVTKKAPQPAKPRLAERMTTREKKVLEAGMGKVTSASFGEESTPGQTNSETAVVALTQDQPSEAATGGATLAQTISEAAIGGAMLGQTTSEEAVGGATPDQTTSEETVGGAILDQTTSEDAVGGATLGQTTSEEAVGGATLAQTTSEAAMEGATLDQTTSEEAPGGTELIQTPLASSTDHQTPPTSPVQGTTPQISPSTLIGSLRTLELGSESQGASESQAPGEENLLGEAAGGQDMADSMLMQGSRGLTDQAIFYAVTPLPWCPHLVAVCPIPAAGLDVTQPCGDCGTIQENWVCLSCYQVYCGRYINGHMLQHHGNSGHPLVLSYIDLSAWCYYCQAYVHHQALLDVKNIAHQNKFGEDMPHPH

O=C(CS)NCCCCCn1ccc2cc(Cl)c(Cl)cc21
IC50 [1]: 12 µM | IC50 [2]: 0.05 µM
